The conditions of series [1]: in vivo; cited from earlier work.
In series [2] the test system is Ts65Dn and 2N mice. The series can be described thus: Cardiovascular and respiratory system monitoring (MouseOx vital signs). The series is classed as in vivo, mouse. Conditions: 2N and Ts65Dn mice.
Method: Cardiovascular and Respiratory System Monitoring. […] The monitor was attached to a collar clip with an LED sensor to enable recordings in free-moving mice. To minimize stress before recording, the collar clip was attached to each animal. After five minutes, heart rate, respiratory rate, and oxygen saturation were recorded using MOUSEOX® 6.3.13 for 10 minutes.
For series [3], the system named is Ts65Dn and 2N mice. Conditions: intranasal 2 mg per kg for 5 days.
From the text: Mice were acclimated to handling for a period of two weeks before the onset of intranasal dosing. Acclimation helped to ensure a correct body position for maximum effectiveness of awake intranasal drug delivery. In addition, acclimation prevented the occurrence of anxiety reaction after dosing. Mice spent about 2-3 days on each of nine steps before progressing to the next step, depending upon the animal's comfort to handling. The mouse's stress level was used as a measure of progress. To do this, the mouse's movements, the amount and frequency of urination, defecation, trembling and biting were assessed.
7) The mouse was placed back on top of his cage for 2 min. and the entire process was repeated starting 2 min. after delivery of the first drop. All together the mouse received four drops of up to 6 μl each totaling a maximum volume of 24 μl of solution.
The training began on the 4th day of intranasal dosing.
The testing day was done on the 5th and final day of dosing.
The first trial for each mouse was done 3 hours post-intranasal dose.
6) The number of incorrect arm entries was quantified. Entries into the goal arm were not counted as errors, even if the platform was not located. An entry was considered to occur when all four legs of the mouse had entered the alley completely and the mouse was parallel to the alley walls. […]
For series [4], the system named is Ts65Dn and 2N mice. On the procedure: b) Fear Conditioning. […] The fear conditioning tests were done using four FreezeScan chambers (Clever Sys) on days 4 and 5 after the start of the open field-testing. […] Four hours later, the mice were placed in the fear-conditioning chamber and their baseline activity was recorded for three minutes. At the end of this period, each mouse was exposed to five shocks (2 seconds each, 0.5 mA) with inter-trial intervals of 80 seconds. Twenty-four hours later, the mice were injected again, similar to the Training Day, and returned to the same fear-conditioning chamber for five minutes and their activity was recorded. Freezing was defined as a lack of movement for 3 frames.

The next series in a line: physchem. Conditions: water.
The next series concerns Ts65Dn mice. Conditions: cited from earlier work; for contextual learning: earlier studies.
In series [5] the test system is Ts65Dn and 2N mice. Description: BrdU cell proliferation count in the DG. The format is in vivo, mouse. Conditions: nadolol alone or nadolol + formoterol. On the procedure:
To identify proliferating cells, we used 5-bromo-2′-deoxyuridine (BrdU, Sigma). It was dissolved in PBS, filtered, and kept at 4° C. till use. After 15 days of treatment, each mouse was injected IP daily (50 mg/kg) with BrdU solution for 5 days. Thereafter, on day 21, all mice were anesthetized and transcardially perfused with ice-cold saline. The entire brain was immediately removed and the two hemispheres were separated. The left hemisphere was fixed overnight, cut, and stored. […] This was followed by incubation of sections in ABC.
Stereo-Investigator (MBF) was used to quantify the total number of BrdU-positive cells in the entire septo-temporal extent of DG. Following the outlining of the DG area at 4×, each positive profile was identified using a 100× oil objective. […] A Nanozoomer system (Hamamatsu 2.0 RS) was used to capture images of the entire slide in each case. High magnification images were captured using the Nanozoomer and stored.

Converted amounts (≈) assume the structure as drawn. Read-outs that look alike come from different tables or passages of the source.

Consider `COc1ccc(CC(C)NCC(O)c2ccc(O)c(NC=O)c2)cc1` (stereo not shown) [formoterol], for which the “crossing of the blood brain barrier” value in series [1] is “cross the blood brain barrier”. In addition, in the series with Ts65Dn and 2N mice [2] (formoterol together with nadolol), the “effect on oxygen saturation” value was “no significant effects”. Moreover, in the series on Ts65Dn and 2N mice [2] (ANOVA treatment effect), the “effect on heart rate” value is “No significant effects”. Besides, the “effect on respiratory rate” value in the series with Ts65Dn and 2N mice [2] (ANOVA treatment effect) is on record as “No significant effects”. For the same compound, the spatial learning result with Ts65Dn and 2N mice [3] is “significant improvement”. Further, the contextual learning result is “improvement” in the series on Ts65Dn and 2N mice [4] (2N mice); “significant improvement” with Ts65Dn and 2N mice [4] (Ts65Dn mice, 6 months, vs nadolol only). Besides, the “freezing behavior within first five minutes in context” value in the series with Ts65Dn and 2N mice [4] (Ts65Dn mice, vs nadolol only) is given as “significant increase”. For the same compound, in the series “physchem”, the solubility (usually the dissolved amount per volume that the medium holds) was approximately 17.2 mg/mL (≈ 49.9 mM).

As to `O=C(NCCNCC(O)COc1ccc(O)cc1)N1CCOCC1` (stereo not shown) [xamoterol], the contextual learning entry with Ts65Dn mice was “significantly improve”. Also, the “spatial learning and/or hyperactivity” value in the series with Ts65Dn mice (later studies) is recorded as “did not improve”.

Regarding `N[C@H](C(=O)O)[C@H](O)c1ccc(O)c(O)c1` [L-DOPS, L-threo-3,4-dihydroxyphenylserine], the contextual learning entry in the series with Ts65Dn mice is “restored”.

As for `CC(C)(C)NCC(O)COc1cccc2c1CC(O)C(O)C2` (stereo not shown) [nadolol], the “total number of BrdU-positive profiles in the DG” value with Ts65Dn and 2N mice [5] was 3,161.930±900.
